Patent publication US8163909B2, “Substituted hydroxyethyl amine compounds as beta-secretase modulators and methods of use” (Amgen Inc., priority 2007, dated 2012)
Where two headings read alike, the source gives them in different places.

Columns and labels:
[1] = molecular target: Beta Secretase enzyme (BACE) (Homo sapiens, UniProt P56817); assay: In vitro enzymatic BACE FRET (fluorescence resonance energy transfer) assay; assay type: biochemical; settings: BACE enzyme FRET assay; read-out: BACE1 FRET assay (IC50);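 also: fluorescence read after 1 h with 50 nM quenched peptide substrate spanning the BACE cleavage site, in pH 4.2 acetate buffer containing 10% DMSO and nonionic detergent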
Sequence of Beta Secretase enzyme (BACE) (P56817 46-501): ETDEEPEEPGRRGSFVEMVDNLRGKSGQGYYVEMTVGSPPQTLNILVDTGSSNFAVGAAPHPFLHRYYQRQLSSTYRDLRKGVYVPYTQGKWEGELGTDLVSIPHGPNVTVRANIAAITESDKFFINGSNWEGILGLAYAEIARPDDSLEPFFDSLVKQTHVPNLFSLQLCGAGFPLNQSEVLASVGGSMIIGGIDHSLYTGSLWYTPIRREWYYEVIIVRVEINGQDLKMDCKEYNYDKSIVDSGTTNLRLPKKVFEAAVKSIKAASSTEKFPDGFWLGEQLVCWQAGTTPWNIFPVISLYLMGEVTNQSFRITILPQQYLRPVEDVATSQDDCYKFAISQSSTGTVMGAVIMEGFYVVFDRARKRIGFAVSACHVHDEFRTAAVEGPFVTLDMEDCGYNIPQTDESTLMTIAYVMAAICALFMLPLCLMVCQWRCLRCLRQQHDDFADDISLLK

[2] = test system: Aβ40 in conditioned medium of cells stably expressing Amyloid Precursor Protein (APP); assay: In vitro BACE cell-based assay (Aβ40 in conditioned medium, sandwich ELISA); settings: cell-based assay, read-out: HEK cell assay (IC50);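 also: compounds added as a dilution series, secreted peptide quantified by europium time-resolved fluorescence readout, potency fitted from percent of control versus compound concentration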
[3] = Homo sapiens, HEK293, HEK cells

Row | Structure (SMILES) | IC50 [1] [nM] | IC50 [2, 3] [nM] | IC50 ([2]; HEK cells) [nM]
1 | COCC(=O)NC(Cc1ccc2c(c1)OCO2)C(O)CNC1CC2(CC(F)C2)Oc2ncc(CC(C)(C)C)cc21 [compound 240, N-((1S,2R)-1-(1,3-benzodioxol-5-ylmethyl)-3-(((1s,3S,4′S)-6′-(2,2-dimethylpropyl)-3-fluoro-3′,4′-dihydrospiro[cyclobutane-1,2′-pyrano[2,3-b]pyridin]-4′-yl)amino)-2-hydroxypropyl)-2-(methyloxy)acetamide] | 87 | 108 | –
2 | COC(C)C(=O)NC(Cc1ccc2c(c1)OCO2)C(O)CNC1CC2(CC(F)C2)Oc2ncc(CC(C)(C)C)cc21 [compound 241, (2R)—N-((1S,2R)-1-(1,3-benzodioxol-5-ylmethyl)-3-(((1s,3S,4′S)-6′-(2,2-dimethylpropyl)-3-fluoro-3′,4′-dihydrospiro[cyclobutane-1,2′-pyrano[2,3-b]pyridin]-4′-yl)amino)-2-hydroxypropyl)-2-(methyloxy)propanamide] | 6.28 | 33.6 | –
3 | COCC(=O)NC(Cc1ccc2c(c1)OCO2)C(O)CNC1CC2(CC(O)C2)Oc2cnccc21 [compound 242, N-((1S,2R)-1-(1,3-benzodioxol-5-ylmethyl)-2-hydroxy-3-(((1s,3S,4′S)-3-hydroxy-3′,4′-dihydrospiro[cyclobutane-1,2′-pyrano[2,3-c]pyridin]-4′-yl)amino)propyl)-2-(methyloxy)acetamide] | 23900 | 1160 | –
4 | COC(C)C(=O)NC(Cc1ccc2c(c1)OCO2)C(O)CNC1CC2(CC(O)C2)Oc2cnccc21 [compound 243, (2R)—N-((1S,2R)-1-(1,3-benzodioxol-5-ylmethyl)-2-hydroxy-3-(((1s,3S,4′S)-3-hydroxy-3′,4′-dihydrospiro[cyclobutane-1,2′-pyrano[2,3-c]pyridin]-4′-yl)amino)propyl)-2-(methyloxy)propanamide] | 36100 | – | 3330
5 | COCC(=O)NC(Cc1ccc2c(c1)OCO2)C(O)CNC1CC2(CC(O)C2)Oc2ncc(CC(C)C)cc21 [compound 246, N-((1S,2R)-1-(1,3-benzodioxol-5-ylmethyl)-2-hydroxy-3-(((1s,3S,4′S)-3-hydroxy-6′-(2-methylpropyl)-3′,4′-dihydrospiro[cyclobutane-1,2′-pyrano[2,3-b]pyridin]-4′-yl)amino)propyl)-2-(methyloxy)acetamide] | 13.5 | 16.4 | –
6 | CC(=O)NC(Cc1ccc2c(c1)OCO2)C(O)CNC1CC2(CC(O)C2)Oc2ncc(CC(C)C)cc21 [compound 247, N-((1S,2R)-1-(1,3-benzodioxol-5-ylmethyl)-2-hydroxy-3-(((1s,3S,4′S)-3-hydroxy-6′-(2-methylpropyl)-3′,4′-dihydrospiro[cyclobutane-1,2′-pyrano[2,3-b]pyridin]-4′-yl)amino)propyl)acetamide] | 6.77 | 13.2 | –
7 | COC(C)C(=O)NC(Cc1ccc2c(c1)OCO2)C(O)CNC1CC2(CC(O)C2)Oc2ncc(CC(C)C)cc21 [compound 248, (2R)—N-((1S,2R)-1-(1,3-benzodioxol-5-ylmethyl)-2-hydroxy-3-(((1s,3S,4′S)-3-hydroxy-6′-(2-methylpropyl)-3′,4′-dihydrospiro[cyclobutane-1,2′-pyrano[2,3-b]pyridin]-4′-yl)amino)propyl)-2-(methyloxy)propanamide] | 17.2 | 35 | –
8 | COCC(=O)NC(Cc1ccc(F)cc1)C(O)CNC1CC2(CC(O)C2)Oc2ncc(CC(C)C)cc21 [compound 249, N-((1S,2R)-1-((4-fluorophenyl)methyl)-2-hydroxy-3-(((1s,3S,4′S)-3-hydroxy-6′-(2-methylpropyl)-3′,4′-dihydrospiro[cyclobutane-1,2′-pyrano[2,3-b]pyridin]-4′-yl)amino)propyl)-2-(methyloxy)acetamide] | 6.5 | 11.3 | –
9 | CO[C@H](C)C(=O)N[C@@H](Cc1ccc(F)cc1)[C@H](O)CN[C@H]1C[C@]2(C[C@H](O)C2)Oc2ncc(CC(C)C)cc21 [compound 250, (2R)—N-((1S,2R)-1-((4-fluorophenyl)methyl)-2-hydroxy-3-(((1s,3S,4′S)-3-hydroxy-6′-(2-methylpropyl)-3′,4′-dihydrospiro[cyclobutane-1,2′-pyrano[2,3-b]pyridin]-4′-yl)amino)propyl)-2-(methyloxy)propanamide] | 12.8 | – | 27.3
10 | CC(=O)NC(Cc1ccc(F)cc1)C(O)CNC1CC2(CC(O)C2)Oc2ncc(CC(C)C)cc21 [compound 251, N-((1S,2R)-1-((4-fluorophenyl)methyl)-2-hydroxy-3-(((1s,3S,4′S)-3-hydroxy-6′-(2-methylpropyl)-3′,4′-dihydrospiro[cyclobutane-1,2′-pyrano[2,3-b]pyridin]-4′-yl)amino)propyl)acetamide] | 6.34 | 11.8 | –
11 | COCC(=O)N[C@@H](Cc1cccc(F)c1)[C@H](O)CN[C@H]1CC2(CCC2)Oc2cnc(CC(C)(C)F)cc21 [compound 252] | 23.6 | 53.8 | –
12 | CO[C@H](C)C(=O)N[C@@H](Cc1cccc(F)c1)[C@H](O)CN[C@H]1CC2(CCC2)Oc2cnc(CC(C)(C)F)cc21 [compound 253] | 36.2 | 74.4 | –
13 | CC(=O)N[C@@H](Cc1ccc(F)cc1)[C@H](O)CN[C@H]1CC2(CCC2)Oc2cnc(CC(C)(C)F)cc21 [compound 254] | 178 | 152 | –
14 | COCC(=O)N[C@@H](Cc1ccc(F)cc1)[C@H](O)CN[C@H]1CC2(CCC2)Oc2cnc(CC(C)(C)F)cc21 [compound 255] | 190 | 216 | –
15 | CO[C@H](C)C(=O)N[C@@H](Cc1ccc(F)cc1)[C@H](O)CN[C@H]1CC2(CCC2)Oc2cnc(CC(C)(C)F)cc21 [compound 256] | 226 | 274 | –

Now from value to compound:

Row | IC50 [1] [nM] | IC50 [2, 3] [nM] | IC50 ([2]; HEK cells) [nM] | Structure (SMILES)
16 | 271 | – | 372 | COC(=O)C1CC2(C1)CC(NCC(O)C(Cc1ccc(F)cc1)NC(C)=O)c1cc(CC(C)(C)C)cnc1O2 [compound 257, methyl (1s,3R,4′S)-4′-(((2R,3S)-3-(acetylamino)-4-(4-fluorophenyl)-2-hydroxybutyl)amino)-6′-(2,2-dimethylpropyl)-3′,4′-dihydrospiro[cyclobutane-1,2′-pyrano[2,3-b]pyridine]-3-carboxylate]
17 | 38.9 | – | 92.9 | COC(=O)C1CC2(C1)CC(NCC(O)C(Cc1ccc(F)cc1)NC(C)=O)c1cc(CC(C)(C)C)cnc1O2 [compound 258, methyl (1r,3S,4′S)-4′-(((2R,3S)-3-(acetylamino)-4-(4-fluorophenyl)-2-hydroxybutyl)amino)-6′-(2,2-dimethylpropyl)-3′,4′-dihydrospiro[cyclobutane-1,2′-pyrano[2,3-b]pyridine]-3-carboxylate]
18 | 16000 | 3330 | – | CC(=O)NC(Cc1ccc(F)cc1)C(O)CNC1CC2(CC(CO)C2)Oc2ncc(CC(C)(C)C)cc21 [compound 259, N-((1S,2R)-3-(((1s,3R,4′S)-6′-(2,2-dimethylpropyl)-3-(hydroxymethyl)-3′,4′-dihydrospiro[cyclobutane-1,2′-pyrano[2,3-b]pyridin]-4′-yl)amino)-1-((4-fluorophenyl)methyl)-2-hydroxypropyl)acetamide]
19 | 98.7 | 70.2 | – | CC(=O)NC(Cc1ccc(F)cc1)C(O)CNC1CC2(CC(C#N)C2)Oc2ncc(CC(C)(C)C)cc21 [compound 260, N-((1S,2R)-3-(((1s,3R,4′S)-3-cyano-6′-(2,2-dimethylpropyl)-3′,4′-dihydrospiro[cyclobutane-1,2′-pyrano[2,3-b]pyridin]-4′-yl)amino)-1-((4-fluorophenyl)methyl)-2-hydroxypropyl)acetamide]
20 | 10.7 | 976 | – | CC(=O)NC(Cc1ccc(F)cc1)C(O)CNC1CC2(CC(C(=O)O)C2)Oc2ncc(CC(C)(C)C)cc21 [compound 263, (1s,3R,4′S)-4′-(((2R,3S)-3-(acetylamino)-4-(4-fluorophenyl)-2-hydroxybutyl)amino)-6′-(2,2-dimethylpropyl)-3′,4′-dihydrospiro[cyclobutane-1,2′-pyrano[2,3-b]pyridine]-3-carboxylic acid]
21 | 9600 | 388 | – | CC(=O)N[C@@H](Cc1ccc2c(c1)OCO2)[C@H](O)CN[C@H]1CC2(CCC2)Oc2cnc(C(F)(F)F)cc21 [compound 265]
22 | 7470 | 1250 | – | COCC(=O)N[C@@H](Cc1ccc2c(c1)OCO2)[C@H](O)CN[C@H]1CC2(CCC2)Oc2cnc(C(F)(F)F)cc21 [compound 266]
23 | 31.8 | 31.4 | – | COCC(=O)NC(Cc1ccc2c(c1)OCO2)C(O)CNC1CC2(CC(O)C2)Oc2ccc(CC(C)(C)C)cc21 [compound 267, N-((1S,2R)-1-(1,3-benzodioxol-5-ylmethyl)-3-(((2s,3′S,4S)-6-(2,2-dimethylpropyl)-3′-hydroxy-3,4-dihydrospiro[chromene-2,1′-cyclobutan]-4-yl)amino)-2-hydroxypropyl)-2-(methyloxy)acetamide]
24 | 18.7 | – | 15.1 | COC(C)C(=O)NC(Cc1ccc2c(c1)OCO2)C(O)CNC1CC2(CC(O)C2)Oc2ccc(CC(C)(C)C)cc21 [compound 268, (2R)—N-((1S,2R)-1-(1,3-benzodioxol-5-ylmethyl)-3-(((2s,3′S,4S)-6-(2,2-dimethylpropyl)-3′-hydroxy-3,4-dihydrospiro[chromene-2,1′-cyclobutan]-4-yl)amino)-2-hydroxypropyl)-2-(methyloxy)propanamide]
25 | 242 | – | 103 | COC(C)C(=O)NC(Cc1ccc2c(c1)OCO2)C(O)CNC1CC2(CC(O)C2)Oc2ccc(CC(C)(C)C)cc21 [compound 269, (2R)—N-((1S,2R)-1-(1,3-benzodioxol-5-ylmethyl)-3-(((2r,3′R,4S)-6-(2,2-dimethylpropyl)-3′-hydroxy-3,4-dihydrospiro[chromene-2,1′-cyclobutan]-4-yl)amino)-2-hydroxypropyl)-2-(methyloxy)propanamide]
26 | 448 | 157 | – | CCNc1cc(Br)cc2c1OC1(CCC1)C[C@@H]2NC[C@@H](O)[C@H](Cc1cccc(F)c1)NC(=O)COC [compound 270]
27 | 38.7 | 100 | – | COCC(=O)N[C@@H](Cc1ccc(F)cc1)[C@H](O)CN[C@H]1CC2(CCC2)Oc2ncc(CC(C)(F)F)cc21 [compound 271]
